Columns and labels:
[1] = molecular target: T1, LRRK2 kinase in SH-SY5Y cells over-expressing recombinant full length LRRK2 (Homo sapiens, UniProt Q5S007); experiment: Recombinant cellular LRRK2 AlphaScreen assay (LRRK2 Ser935 phosphorylation); assay type: cell-based; details: 60 min
T1 construct: A BacMam virus expressing full length recombinant LRRK2 was purchased from Invitrogen; host or cells: SH-SY5Y human neuroblastoma cells transduced with BacMam LRRK2 virus
Outline: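 Read-out is AlphaScreen of LRRK2 pSer935 over total LRRK2 in lysates of SH-SY5Y cells over-expressing full-length LRRK2 via BacMam (24 h transduction). Cells were exposed 60 min at 37 °C to an 11-point 1-in-4 dilution series starting at 10 uM; sigmoidal fit.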

[2] = molecular target: T2, full length G2019 human LRRK2 (Homo sapiens, UniProt Q5S007, R50H); experiment: Full length G2019 human LRRK2 inhibition mass spectrometry assay; assay type: biochemical; details: LRRKtide to phospho-LRRKtide conversion, RapidFire MS, 2 mM ATP
T2 construct: made in house; host or cells: HEK293 6E cells transduced with BacMam virus (virus generated in Sf9 cells)
T2 sequence (Q5S007 with tags, fused parts or gaps R50H): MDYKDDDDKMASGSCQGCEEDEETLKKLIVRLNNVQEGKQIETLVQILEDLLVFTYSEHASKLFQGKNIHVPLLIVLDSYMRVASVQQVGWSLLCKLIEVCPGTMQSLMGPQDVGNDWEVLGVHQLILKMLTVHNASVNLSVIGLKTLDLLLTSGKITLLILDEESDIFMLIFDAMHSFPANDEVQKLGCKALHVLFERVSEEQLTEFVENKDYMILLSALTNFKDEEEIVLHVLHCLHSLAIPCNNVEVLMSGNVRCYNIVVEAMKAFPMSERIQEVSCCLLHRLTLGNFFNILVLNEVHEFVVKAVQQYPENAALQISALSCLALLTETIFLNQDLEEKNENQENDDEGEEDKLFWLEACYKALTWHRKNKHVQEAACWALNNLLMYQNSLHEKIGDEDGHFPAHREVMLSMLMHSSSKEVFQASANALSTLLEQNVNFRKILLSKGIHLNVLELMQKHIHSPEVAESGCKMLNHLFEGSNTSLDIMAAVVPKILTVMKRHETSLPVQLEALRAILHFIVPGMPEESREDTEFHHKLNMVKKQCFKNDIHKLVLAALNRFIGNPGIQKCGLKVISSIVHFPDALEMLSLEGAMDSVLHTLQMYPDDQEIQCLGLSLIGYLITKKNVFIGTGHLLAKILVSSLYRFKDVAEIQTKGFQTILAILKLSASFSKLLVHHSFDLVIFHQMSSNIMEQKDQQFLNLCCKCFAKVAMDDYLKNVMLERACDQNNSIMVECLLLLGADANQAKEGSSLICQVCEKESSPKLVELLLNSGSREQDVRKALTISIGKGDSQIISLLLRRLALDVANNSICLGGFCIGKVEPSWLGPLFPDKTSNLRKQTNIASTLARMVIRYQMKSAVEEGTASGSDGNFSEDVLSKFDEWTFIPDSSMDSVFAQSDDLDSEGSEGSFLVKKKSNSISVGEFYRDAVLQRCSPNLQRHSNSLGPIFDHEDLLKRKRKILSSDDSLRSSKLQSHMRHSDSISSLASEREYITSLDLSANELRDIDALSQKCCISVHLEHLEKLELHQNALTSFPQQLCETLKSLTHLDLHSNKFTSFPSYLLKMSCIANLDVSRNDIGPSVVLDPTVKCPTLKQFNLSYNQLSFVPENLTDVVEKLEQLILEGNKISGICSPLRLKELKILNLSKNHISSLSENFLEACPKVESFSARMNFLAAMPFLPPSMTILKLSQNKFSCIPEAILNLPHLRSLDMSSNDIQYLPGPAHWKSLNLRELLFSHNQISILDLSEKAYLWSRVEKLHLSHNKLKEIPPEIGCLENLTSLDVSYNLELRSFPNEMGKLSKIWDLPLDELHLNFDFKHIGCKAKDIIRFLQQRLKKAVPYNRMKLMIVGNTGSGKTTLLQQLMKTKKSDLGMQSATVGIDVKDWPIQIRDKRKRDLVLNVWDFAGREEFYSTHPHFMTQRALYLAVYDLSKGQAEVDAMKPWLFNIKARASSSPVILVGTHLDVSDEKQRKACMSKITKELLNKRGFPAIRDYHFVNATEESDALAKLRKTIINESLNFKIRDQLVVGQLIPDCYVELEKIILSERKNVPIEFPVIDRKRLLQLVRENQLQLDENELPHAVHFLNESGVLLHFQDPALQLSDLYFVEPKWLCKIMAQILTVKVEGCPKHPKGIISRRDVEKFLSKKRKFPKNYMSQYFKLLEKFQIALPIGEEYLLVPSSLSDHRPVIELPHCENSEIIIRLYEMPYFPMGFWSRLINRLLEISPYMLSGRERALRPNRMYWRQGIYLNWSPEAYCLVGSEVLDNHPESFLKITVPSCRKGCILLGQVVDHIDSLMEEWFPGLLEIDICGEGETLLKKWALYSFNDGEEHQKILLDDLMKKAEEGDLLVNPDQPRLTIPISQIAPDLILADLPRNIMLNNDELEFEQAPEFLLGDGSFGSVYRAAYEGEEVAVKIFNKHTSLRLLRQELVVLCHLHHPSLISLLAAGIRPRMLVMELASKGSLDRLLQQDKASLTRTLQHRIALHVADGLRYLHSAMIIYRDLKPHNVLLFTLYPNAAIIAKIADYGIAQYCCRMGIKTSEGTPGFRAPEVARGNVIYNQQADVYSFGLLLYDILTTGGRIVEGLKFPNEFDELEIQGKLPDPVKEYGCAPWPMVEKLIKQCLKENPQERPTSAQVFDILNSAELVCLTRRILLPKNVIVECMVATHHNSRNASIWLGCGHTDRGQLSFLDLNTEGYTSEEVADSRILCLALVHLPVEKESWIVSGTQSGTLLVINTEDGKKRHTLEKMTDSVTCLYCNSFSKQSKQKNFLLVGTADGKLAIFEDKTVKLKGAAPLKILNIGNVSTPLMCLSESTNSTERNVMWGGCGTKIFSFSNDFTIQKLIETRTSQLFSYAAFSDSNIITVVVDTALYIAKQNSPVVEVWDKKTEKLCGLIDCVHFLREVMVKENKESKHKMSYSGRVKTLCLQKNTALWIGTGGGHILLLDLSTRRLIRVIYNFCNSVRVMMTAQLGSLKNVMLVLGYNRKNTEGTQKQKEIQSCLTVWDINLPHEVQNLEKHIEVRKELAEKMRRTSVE
Outline: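 Inhibition taken as reduced LRRKtide phosphorylation, quantified by RapidFire-coupled triple-quadrupole MS as product/(product+substrate) peak area. Reaction: 2 mM ATP, 25 μM peptide, ~25 nM full-length G2019 Flag-LRRK2, Hepes pH 7.2 buffer, room temperature for 1 h. 11-point 1-in-4 dilutions from 100 μM; logistic fit gives IC50, reported as pIC50.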

T1 sequence (Q5S007 whole entry): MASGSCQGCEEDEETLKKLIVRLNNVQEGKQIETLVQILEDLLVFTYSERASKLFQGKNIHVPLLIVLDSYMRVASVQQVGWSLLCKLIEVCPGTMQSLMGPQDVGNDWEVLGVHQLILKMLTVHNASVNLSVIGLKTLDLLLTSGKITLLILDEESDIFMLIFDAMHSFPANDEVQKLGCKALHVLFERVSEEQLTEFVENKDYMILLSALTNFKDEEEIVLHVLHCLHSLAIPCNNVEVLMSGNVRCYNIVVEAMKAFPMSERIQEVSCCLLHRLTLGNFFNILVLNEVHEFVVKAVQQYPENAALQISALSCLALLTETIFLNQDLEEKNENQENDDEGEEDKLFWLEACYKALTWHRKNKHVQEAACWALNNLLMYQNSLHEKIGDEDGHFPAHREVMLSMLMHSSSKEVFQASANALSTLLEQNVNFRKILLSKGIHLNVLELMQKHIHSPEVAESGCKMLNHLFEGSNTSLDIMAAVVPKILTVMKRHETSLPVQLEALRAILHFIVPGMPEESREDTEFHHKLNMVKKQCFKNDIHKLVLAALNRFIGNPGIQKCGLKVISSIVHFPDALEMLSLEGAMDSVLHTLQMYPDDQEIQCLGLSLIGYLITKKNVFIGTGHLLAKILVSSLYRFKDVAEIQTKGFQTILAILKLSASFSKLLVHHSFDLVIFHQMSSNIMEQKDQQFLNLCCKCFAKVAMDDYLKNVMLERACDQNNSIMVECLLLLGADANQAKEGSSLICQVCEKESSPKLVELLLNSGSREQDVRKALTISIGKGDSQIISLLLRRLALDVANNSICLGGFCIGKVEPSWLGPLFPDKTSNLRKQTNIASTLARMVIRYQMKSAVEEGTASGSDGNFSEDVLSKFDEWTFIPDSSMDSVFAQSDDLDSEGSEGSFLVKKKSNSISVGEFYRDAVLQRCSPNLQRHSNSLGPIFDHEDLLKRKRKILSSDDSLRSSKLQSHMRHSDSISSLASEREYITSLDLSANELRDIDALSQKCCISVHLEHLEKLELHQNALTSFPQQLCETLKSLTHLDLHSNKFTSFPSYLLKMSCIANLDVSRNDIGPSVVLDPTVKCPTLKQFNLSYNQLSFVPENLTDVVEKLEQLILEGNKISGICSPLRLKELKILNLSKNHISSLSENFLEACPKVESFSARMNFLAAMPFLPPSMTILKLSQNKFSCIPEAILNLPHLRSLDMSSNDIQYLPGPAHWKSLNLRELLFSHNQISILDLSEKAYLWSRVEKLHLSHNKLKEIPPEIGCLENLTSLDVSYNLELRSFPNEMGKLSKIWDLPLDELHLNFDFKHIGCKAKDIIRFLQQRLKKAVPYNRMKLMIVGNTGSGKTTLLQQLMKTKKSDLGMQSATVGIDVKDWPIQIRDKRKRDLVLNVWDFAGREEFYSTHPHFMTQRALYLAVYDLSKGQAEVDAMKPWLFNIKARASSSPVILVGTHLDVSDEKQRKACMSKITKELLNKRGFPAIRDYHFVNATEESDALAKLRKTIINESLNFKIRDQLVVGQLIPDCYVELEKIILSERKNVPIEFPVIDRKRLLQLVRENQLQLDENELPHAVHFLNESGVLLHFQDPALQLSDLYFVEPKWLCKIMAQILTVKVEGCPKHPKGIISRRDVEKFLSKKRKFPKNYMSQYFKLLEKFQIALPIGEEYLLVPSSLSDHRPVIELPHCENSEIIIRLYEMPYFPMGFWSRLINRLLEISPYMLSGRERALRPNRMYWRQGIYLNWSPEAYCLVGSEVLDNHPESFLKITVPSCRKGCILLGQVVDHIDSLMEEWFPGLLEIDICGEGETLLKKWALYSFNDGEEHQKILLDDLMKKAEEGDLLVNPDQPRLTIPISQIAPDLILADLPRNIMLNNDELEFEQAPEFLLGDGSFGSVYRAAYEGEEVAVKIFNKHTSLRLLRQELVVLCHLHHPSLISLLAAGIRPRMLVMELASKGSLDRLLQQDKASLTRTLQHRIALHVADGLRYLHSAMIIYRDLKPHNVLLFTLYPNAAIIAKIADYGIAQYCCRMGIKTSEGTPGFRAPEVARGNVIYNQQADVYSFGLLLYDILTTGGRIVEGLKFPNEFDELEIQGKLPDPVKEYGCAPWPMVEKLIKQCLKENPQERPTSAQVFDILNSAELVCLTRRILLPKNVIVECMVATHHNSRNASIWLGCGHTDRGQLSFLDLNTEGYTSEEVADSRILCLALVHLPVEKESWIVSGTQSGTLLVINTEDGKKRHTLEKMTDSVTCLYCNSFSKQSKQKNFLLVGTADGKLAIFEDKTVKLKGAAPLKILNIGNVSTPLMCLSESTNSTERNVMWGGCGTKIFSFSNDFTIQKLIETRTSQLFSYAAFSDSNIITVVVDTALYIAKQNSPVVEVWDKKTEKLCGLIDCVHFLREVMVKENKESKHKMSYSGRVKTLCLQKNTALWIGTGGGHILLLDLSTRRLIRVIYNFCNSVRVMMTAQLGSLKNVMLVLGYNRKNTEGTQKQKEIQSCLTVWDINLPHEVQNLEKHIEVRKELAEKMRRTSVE

IC50 [1] | IC50 [2] | Compound
≤ 100 nM | ≤ 100 nM | COC1CNc2nc(ncc2C(F)(F)F)Nc2c(nn(C3CCOCC3)c2C)OC1 (single isomer, unassigned) [E121, 10-methoxy-4-methyl-5-(oxan-4-yl)-14-(trifluoromethyl)-8-oxa-2,5,6,12,16,17-hexaazatricyclo[11.3.1.0^3,7] heptadeca-1(16),3,6,13(17),14-pentaene]
≤ 100 nM | ≤ 100 nM | Cc1c2c(nn1C1CC3CCC(C1)O3)OCCCNc1nc(ncc1Cl)N2 (single isomer, unassigned) [E243, 14-Chloro-4-methyl-5-{8-oxabicyclo[3.2.1]octan-3-yl}-8-oxa-2,5,6,12,16,17-hexaazatricyclo[11.3.1.0^3,7] heptadeca-1(16),3,6,13(17),14-pentaene]
≤ 100 nM | ≤ 100 nM | Cc1c2c(nn1C1CCC(N3CCOCC3)C1)OCCCNc1nc(ncc1Cl)N2 (single isomer, unassigned) [E369, 14-Chloro-4-methyl-5-[3-(morpholin-4-yl)cyclopentyl]-8-oxa-2,5,6,12,16,17-hexaazatricyclo[11.3.1.0^3,7] heptadeca-1(16),3,6,13(17),14-pentaene]
≤ 100 nM | ≤ 100 nM | Cc1c2c(nn1C1CCOCC1)OCCCOc1nc(ncc1Cl)N2 [E110, 14-Chloro-4-methyl-5-(oxan-4-yl)-8,12-dioxa-2,5,6,16,17-pentaazatricyclo[11.3.1.0^3,7]heptadeca-1(16),3,6,13(17),14-pentaene]
≤ 100 nM | ≤ 100 nM | Cc1c2c(nn1C1CCOC1)OCCCNc1nc(ncc1C(F)(F)F)N2 (single isomer, unassigned) [E127, 4-methyl-5-(oxolan-3-yl)-14-(trifluoromethyl)-8-oxa-2,5,6,12,16,17-hexaazatricyclo[11.3.1.0^3,7]heptadeca-1(16),3,6,13(17),14-pentaene]
≤ 100 nM | ≤ 100 nM | Cc1c2c(nn1C1CCOC1)OCCCNc1nc(ncc1Cl)N2 (single isomer, unassigned) [E123, 14-chloro-4-methyl-5-(oxolan-3-yl)-8-oxa-2,5,6,12,16,17-hexaazatricyclo[11.3.1.0^3,7]heptadeca-1(16),3,6,13(17), 14-pentaene]
≤ 100 nM | ≤ 100 nM | Cc1c2c(nn1C1COCCC1(F)F)OCCCNc1nc(ncc1Cl)N2 (single isomer, unassigned) [E302, 14-Chloro-5-(4,4-difluorooxan-3-yl)-4-methyl-8-oxa-2,5,6,12,16,17-hexaazatricyclo[11.3.1.0^3,7]heptadeca-1(16),3,6,13(17),14-pentaene]
≤ 100 nM | ≤ 10000 nM | Cc1c2c(nn1C(=O)C1CCOCC1)OCCCNc1nc(ncc1Cl)N2 [E363, 14-Chloro-4-methyl-5-(oxane-4-carbonyl)-8-oxa-2,5,6,12,16,17-hexaazatricyclo[11.3.1.0^3,7]heptadeca-1(16),3,6,13(17),14-pentaene]
≤ 100 nM | ≤ 100 nM | Cc1c2c(nn1C1CCOCC1)OCC(C)C(C)Nc1nc(ncc1Cl)N2 (single isomer, unassigned) [E32, 14-chloro-4,10,11-trimethyl-5-(oxan-4-yl)-8-oxa-2,5,6,12,16,17-hexaazatricyclo [11.3.1.0^3,7]heptadeca-1(16),3,6,13(17),14-pentaene]
≤ 100 nM | ≤ 100 nM | Cc1c2c(nn1C1CCOCC1(F)F)OCCCNc1nc(ncc1Cl)N2 (single isomer, unassigned) [E415]
≤ 100 nM | ≤ 100 nM | Cc1c2c(nn1C1CCOCC1)OCCC(CF)Nc1nc(ncc1Cl)N2 (single isomer, unassigned) [E54, 14-chloro-11-(fluoromethyl)-4-methyl-5-(oxan-4-yl)-8-oxa-2,5,6,12, 16,17-hexaazatricyclo[11.3.1.0^3,7]heptadeca-1(16),3,6,13(17),14-pentaene]
≤ 100 nM | ≤ 100 nM | Cc1c2c(nn1C1CCOCC1)OCCCOc1nc(ncc1C(F)(F)F)N2 [E117, 4-Methyl-5-(oxan-4-yl)-14-(trifluoromethyl)-8,12-dioxa-2,5,6, 16,17-pentaazatricyclo[11.3.1.0^3,7]heptadeca-1(16),3,6,13(17),14-pentaene]

More lines, now with the values behind:

Compound | IC50 [1] | IC50 [2]
Cc1c2c(nn1C1CC(O)C1)OCC[C@@H](C)N(C)c1nc(ncc1Cl)N2 (stereo partly drawn) [E376, 3-[(11R)-14-Chloro-4,11,12-trimethyl-8-oxa-2,5,6,12,16,17-hexaazatricyclo[11.3.1.0^3,7]heptadeca-1(16),3,6,13(17),14-pentaen-5-yl] cyclobutan-1-ol] | ≤ 100 nM | ≤ 100 nM
COCCn1nc2c(c1C)Nc1ncc(Cl)c(n1)NCCCO2 [E116, 14-Chloro-5-(2-methoxyethyl)-4-methyl-8-oxa-2,5,6,12,16,17-hexaazatricyclo[11.3.1.0^3,7]heptadeca-1(16),3,6,13(17),14-pentaene] | ≤ 100 nM | ≤ 100 nM
Cc1c2c(nn1C1CCOCC1(C)C)OCC[C@@H](C)Nc1nc(ncc1Cl)N2 (stereo partly drawn) [E421, (11R)-14-Chloro-5-(3,3-dimethyloxan-4-yl)-4,11-dimethyl-8-oxa-2,5,6,12,16,17-hexaazatricyclo[11.3.1.0^3,7]heptadeca-1(16),3,6,13(17),14-pentaene] | ≤ 100 nM | ≤ 100 nM
Cc1c2c(nn1C1CC(N3CC4CC3CO4)C1)OCC[C@@H](C)Nc1nc(ncc1Cl)N2 (stereo in doubt) [E318, (11R)-14-Chloro-4,11-dimethyl-5-{3-[(1R,4R)-2-oxa-5-azabicyclo[2.2.1]heptan-5-yl]cyclobutyl}-8-oxa-2,5,6,12,16,17-hexaazatricyclo[11.3.1.0^3,7]heptadeca-1(16),3,6,13(17),14-pentaene] | ≤ 100 nM | ≤ 100 nM
Cc1c2c(nn1C1CC(O)C1)OCC[C@@H](C)Nc1nc(ncc1Cl)N2 (stereo partly drawn) [E375, 3-[(11R)-14-Chloro-4,11-dimethyl-8-oxa-2,5,6,12,16,17-hexaazatricyclo[11.3.1.0^3,7]heptadeca-1(16),3,6,13(17),14-pentaen-5-yl]cyclobutan-1-ol] | ≤ 100 nM | ≤ 100 nM
Cc1[nH]nc2c1Nc1ncc(Cl)c(n1)NCCCO2 [E395, 14-Chloro-4-methyl-8-oxa-2,5,6,12,16,17-hexaazatricyclo [11.3.1.0^3,7]heptadeca-1(16),3,6,13(17),14-pentaene] | ≤ 100 nM | ≤ 100 nM
CCc1c2c(nn1C1CCOCC1)OCC[C@@H](C)Nc1nc(ncc1Cl)N2 [E399, (11R)-14-Chloro-4-ethyl-11-methyl-5-(oxan-4-yl)-8-oxa-2,5,6,12,16,17-hexaazatricyclo[11.3.1.0^3,7]heptadeca-1(16),3,6,13(17),14-pentaene] | ≤ 100 nM | ≤ 100 nM
Cc1c2c(nn1C1CN(C3CCCOC3)C1)OCC[C@@H](C)Nc1nc(ncc1Cl)N2 (stereo partly drawn) [E385, (11R)-14-Chloro-4,11-dimethyl-5[1-(oxan-3-yl)azetidin-3-yl]-8-oxa-2,5,6,12,16,17-hexaazatricyclo[11.3.1.0^3,7]heptadeca-1(16),3,6,13(17),14-pentaene] | ≤ 100 nM | ≤ 100 nM
Cc1c2c(nn1CCN1C[C@H]3C[C@@H]1CO3)OCCC(C)Nc1nc(ncc1Cl)N2 (single isomer, unassigned) [E208] | ≤ 100 nM | ≤ 100 nM
C[C@@H]1CCOc2nn(C3CCN(C4COC4)CC3(F)F)c(Cl)c2Nc2ncc(Cl)c(n2)N1 (single isomer, unassigned) [E444] | ≤ 100 nM | ≤ 100 nM
Cc1[nH]nc2c1Nc1ncc(Cl)c(n1)N[C@H](C)CCO2 [E394, (11R)-14-Chloro-4,11-dimethyl-8-oxa-2,5,6,12,16,17-hexaazatricyclo[11.3.1.0^3,7]heptadeca-1(16),3,6,13(17),14-pentaene] | ≤ 100 nM | ≤ 100 nM
Cc1c2c(nn1C1CC3(COC3)C1)OCC[C@@H](C)Nc1nc(ncc1Cl)N2 [E301, (11R)-14-Chloro-4,11-dimethyl-5-{2-oxaspiro[3.3]heptan-6-yl}-8-oxa-2,5,6,12,16,17-hexaazatricyclo[11.3.1.0^3,7]heptadeca-1(17),3,6,13,15-pentaene] | ≤ 100 nM | ≤ 100 nM
Cc1c2c(nn1C1CCC(N3C[C@@H]4C[C@H]3CO4)CC1)OCCC(C)Nc1nc(ncc1Cl)N2 (single isomer, unassigned) [E104] | ≤ 100 nM | ≤ 100 nM
